{"source": "paper doi:10.1101/2024.07.22.604525v1", "about": "(bioRxiv, 2024)", "key": {"A. muciniphila": {"system": "A. muciniphila", "format": "in vivo", "details": "HFD-fed mice, VAMP 50 mg/kg oral gavage, 8 weeks; colonic contents, 16S rRNA"}, "HFD-fed mice [1]": {"system": "HFD-fed mice", "assay": "HFD-fed obese mice, VAMP for 1 week", "format": "in vivo", "details": "HFD 8 weeks, then VAMP 50 mg/kg daily for 1 week, vs vehicle, n = 6"}, "[2]": {"system": "other strains of Bacteroides", "assay": "Single-strain growth in culture", "format": "cell-based", "details": "VAMP 50 μM vs PBS, anaerobic, 48 h, OD600 ratio"}, "C57BL/6J male SPF mice": {"system": "C57BL/6J male SPF mice", "assay": "Preliminary safety evaluation in mice", "format": "in vivo", "details": "10 mg/kg and 100 mg/kg, gavage 3 times per week, 4 weeks, n = 6 mice/group"}, "ob/ob mice": {"system": "ob/ob mice", "assay": "ob/ob mice, VAMP for 4 weeks", "format": "in vivo", "details": "VAMP 50 mg/kg daily oral gavage, n = 6"}, "HFD-induced obese mice": {"system": "HFD-induced obese mice", "assay": "HFD-induced obese mice, VAMP and/or benzydamine for 4 weeks", "format": "in vivo", "details": "HFD 8 weeks, then VAMP 50 mg/kg three times per week for 4 weeks, n = 6"}, "HFD-fed mice [3]": {"system": "HFD-fed mice", "format": "in vivo", "details": "8 weeks"}, "HFD-fed mice [4]": {"system": "HFD-fed mice", "assay": "HFD-fed mice, TPH or sitagliptin for 8 weeks", "format": "in vivo", "details": "sitagliptin 12.5 mg/kg daily oral gavage"}, "[5]": {"details": "HFD plus VAMP 50 mg/kg daily oral gavage, vs HFD-fed control"}, "[6]": {"details": "HFD plus VAMP 50 mg/kg daily oral gavage, vs vehicle, n = 6"}}, "note": "Where two headings read alike, the source gives them in different places. Where a SMILES comes first, the peptide text is derived from it.", "data": [{"smiles": "CSCC[C@H](NC(=O)[C@H](C)NC(=O)[C@@H](N)C(C)C)C(=O)N1CCC[C@H]1C(=O)O", "note": "[VAMP] (H-VAMP-OH; N-terminus and C-terminus assumed)", "values": [{"measurement": "abundance of Akkermansia (genus level)", "setting": "A. muciniphila", "result": "significantly increased"}, {"measurement": "energy intake", "setting": "HFD-fed mice [1]", "result": "no significant differences"}, {"measurement": "plasma active GLP-1 level", "setting": "HFD-fed mice [1]", "result": "increased"}, {"measurement": "plasma total GLP-1 level", "setting": "HFD-fed mice [1]", "result": "without altering"}, {"measurement": "growth of other strains of Bacteroides", "setting": "[2]", "result": "failed to stimulate the growth"}, {"measurement": "side effects in mice (body weight, food intake, ALT, AST, UREA, CRE)", "setting": "C57BL/6J male SPF mice", "result": "did not induce any obvious side effects"}, {"measurement": "FBG", "setting": "ob/ob mice", "result": "steadily decreased"}, {"measurement": "body weight", "setting": "ob/ob mice", "result": "no significant difference"}, {"measurement": "energy intake", "setting": "ob/ob mice", "result": "no significant difference"}, {"measurement": "intestinal DPP-IV activity", "setting": "ob/ob mice", "result": "suppressed intestinal DPP-IV activity"}, {"measurement": "intestinal active GLP-1 level", "setting": "ob/ob mice", "result": "increased the levels"}, {"measurement": "plasma active GLP-1 level", "setting": "ob/ob mice", "result": "increased the levels"}, {"measurement": "body weight", "setting": "HFD-induced obese mice", "result": "significantly decreased"}, {"measurement": "thickness of colonic mucus layer", "setting": "HFD-fed mice [3]; Alcian blue-stained sections, HFD plus VAMP 50 mg/kg", "result": "increased thickness of mucus layer"}, {"measurement": "plasma IL-1β level", "setting": "HFD-fed mice [3]; [5]", "result": "significantly reduced"}, {"measurement": "plasma TNF-α level", "setting": "HFD-fed mice [3]; [5]", "result": "significantly reduced"}, {"measurement": "plasma endotoxin (LPS) level", "setting": "HFD-fed mice [3]; [5]", "result": "significantly reduced"}, {"measurement": "fat weight/body weight ratio", "setting": "HFD-fed mice [3]; HFD plus VAMP 50 mg/kg daily oral gavage, vs vehicle", "result": "significantly decreased"}, {"measurement": "size of adipocytes in white adipose tissue", "setting": "HFD-fed mice [3]; HFD plus VAMP 50 mg/kg daily oral gavage, vs vehicle, 3 mice per group", "result": "significantly decreased"}, {"measurement": "FBG", "setting": "HFD-fed mice [3]; [6]", "result": "significantly decreased"}, {"measurement": "body weight", "setting": "HFD-fed mice [3]; [6]", "result": "significantly decreased"}, {"measurement": "fasting insulin level", "setting": "HFD-fed mice [3]; [6]", "result": "decreased fasting insulin levels"}, {"measurement": "glucose tolerance (OGTT)", "setting": "HFD-fed mice [3]; [6]", "result": "improved glucose tolerance"}, {"measurement": "intestinal active GLP-1 level", "setting": "HFD-fed mice [3]; [6]", "result": "significantly increased"}, {"measurement": "intestinal total GLP-1 level", "setting": "HFD-fed mice [3]; [6]", "result": "without affecting"}, {"measurement": "plasma active GLP-1 level", "setting": "HFD-fed mice [3]; [6]", "result": "significantly increased"}, {"measurement": "plasma total GLP-1 level", "setting": "HFD-fed mice [3]; [6]", "result": "without affecting"}, {"measurement": "expression of intestinal Tjp1, Ocln, Cldn3, and Muc2", "setting": "HFD-fed mice [3]; colonic tissue mRNA, RT-qPCR, HFD plus VAMP 50 mg/kg", "result": "upregulate"}]}, {"smiles": "N[C@@H](CC(=O)N1CCn2c(nnc2C(F)(F)F)C1)Cc1cc(F)c(F)cc1F", "note": "[sitagliptin, Sitagliptin]", "values": [{"measurement": "glucose metabolism in obese mice", "setting": "HFD-fed mice [4]", "result": "effectively improved glucose metabolism"}]}]}
